Assays:
Format in all cases: biochemical
KLK4 = target: T1, KLK4 (Homo sapiens, UniProt Q9Y5K2); assay: KLK4 inactivation kinetics from progress curves (kobs vs inhibitor concentration); details: for kapp KLK4: apparent second-order rate constant, substrate 250 μM; for Irreversible (KLK4): irreversible binding to KLK4, Yes/No
T1 construct: purchased Viktor Magdolen (TUM), supplied by an academic laboratory
In short: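 Enzyme was added at time zero to inhibitor plus substrate (250 μM final), and aminomethylcoumarine absorbance was followed under pseudo-first-order conditions ([I]0>>[E]0) with under 10% substrate conversion. Progress curves were fitted to the integrated rate equation to give kobs. kapp is the slope of kobs versus [I]0 and depends on substrate concentration.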

uPA (recombinant) = target: T2, uPA (recombinant) (Homo sapiens, UniProt P00749); assay: uPA inhibition, chromogenic substrate Biophen CS-61(44); details: Tris buffer pH 8.8; read-out: IC50 uPA
T2 construct: purchased Nodia

FXa = target: T3, FXa (Homo sapiens, UniProt P00742); assay: FXa inhibition, chromogenic substrate Biophen CS-11(32); details: Tris buffer pH 8.3; read-out: IC50 FXa
T3 construct: purchased Nodia
Text: The IC50 values For KLK1, KLK2 and KLK8 were obtained in a similar way. For plasmin, tPA, thrombin, Fxa, HNE, Plasma kallikrein Chromogenic substrates were used (absorption: 405 nm). (KLK2, KLK4, KLK8 were supplied by Viktor Magdolen TUMunich (TUM)).

T1 sequence (Q9Y5K2 31-254): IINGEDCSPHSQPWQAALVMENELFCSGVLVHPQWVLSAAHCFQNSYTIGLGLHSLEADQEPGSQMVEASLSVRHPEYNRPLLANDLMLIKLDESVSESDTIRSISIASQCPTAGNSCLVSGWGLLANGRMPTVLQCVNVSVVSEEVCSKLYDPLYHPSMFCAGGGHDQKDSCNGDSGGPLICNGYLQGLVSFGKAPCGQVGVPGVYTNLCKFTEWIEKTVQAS
T3 sequence (P00742 235-488 limits assumed): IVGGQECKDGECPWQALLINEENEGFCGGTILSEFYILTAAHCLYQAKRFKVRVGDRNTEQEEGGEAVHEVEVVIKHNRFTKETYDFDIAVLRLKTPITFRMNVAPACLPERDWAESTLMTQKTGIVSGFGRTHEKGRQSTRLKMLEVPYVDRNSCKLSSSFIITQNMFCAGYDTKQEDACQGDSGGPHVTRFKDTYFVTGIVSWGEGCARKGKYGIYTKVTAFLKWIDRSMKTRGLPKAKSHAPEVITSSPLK
T3 sequence (P00742 41-179 partner limits assumed): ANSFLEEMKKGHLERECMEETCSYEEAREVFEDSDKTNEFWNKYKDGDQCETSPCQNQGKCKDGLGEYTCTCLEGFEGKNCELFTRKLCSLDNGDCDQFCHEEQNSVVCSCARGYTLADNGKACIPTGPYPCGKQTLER

Structure (SMILES) | kapp KLK4 (KLK4) [M⁻¹ s⁻¹] | Irreversible (KLK4) (KLK4) | IC50 (uPA (recombinant)) [µM] | IC50 (FXa) [µM]
COCCOCCOC(=O)NC(c1ccc(NC(=N)N)cc1)P(=O)(Oc1ccccc1)Oc1ccccc1.O=C(O)C(F)(F)F (centres unmarked) [Compound 28, 2-(2-methoxyethoxy)ethyl((diphenoxyphosphoryl)(4-guanidinophenyl)methyl) carbamate 2,2,2-trifluoroacetate] | 34000 | Yes/ | 10 to 250 | > 250
N=C(N)Nc1ccc(C(NC(=O)OCCOc2ccccc2)P(=O)(Oc2ccccc2)Oc2ccccc2)cc1.O=C(O)C(F)(F)F (centres unmarked) [Compound 30, 2-phenoxyethyl((diphenoxyphosphoryl)(4-guanidinophenyl)methyl)carbamate 2,2,2-trifluoroacetate] | 15000 | Yes/ | 2.5 to 10 | 10 to 250

Reference: US10017527B2, “KLK4 inhibitors” (Universiteit Antwerpen, priority 2014, dated 2018)
